pIC50: −log10 of the molar value.
Test system: 782815-120-R-J1-PDC complex spheroid viability
Test: Anticancer human tumor 782815-120-R-J1-PDC patient-derived colon adenocarcinoma cell line growth inhibition [RAS]
Conditions: for pIC50: curve of first compound; for viability, T/C: stronger effect = lower value
Source text: RAS pathway inhibitors in Combinations in Complex Spheroids
A high-throughput screen of multi-cell type tumor spheroids was designed to identify active combinations of RAS pathway inhibitors and targeted small molecules. Complex spheroids include a stromal component modeled by human endothelial cells (HUVEC) and fibroblasts modeled by human mesenchymal stem cells (MSCs). The concentration ranges selected for each drug and investigational agent were based upon clinically achievable concentrations if the clinical Cmax of the agent was known.
Compounds. The drugs and investigational agents: abemaciclib (NSC768073), cobimetinib (NSC768068), divarasib (GDC6063, NSC841802), docetaxel (NSC628503), GDC-1971 (RLY-1971, NSC841576), gemcitabine (NSC613327), inavolisib (NSC800729), ipatasertib (NSC767898), KB-0742 (NSC834161), MRTX-1133 (NSC836407), osimertinib (NSC779217), RMC-4630 (NSC839698), RMC-6236 (NSC851965), RMC-6291 (NSC852671), Ro-3306 (NSC812927), sapanisertib (NSC764658), SN-38 (NSC673596), staurosporine (NSC755774), SY5609 (NSC837396), and tovorafenib (DAY101, NSC766906), were obtained from the National Cancer Institute (NCI) Developmental Therapeutics Program Chemical Repository. The FDA-approved anticancer drug set is available from the NCI Developmental Therapeutics Program. […] The stock solutions were prepared in dimethyl sulfoxide (DMSO, Sigma-Aldrich, St. Louis, MO, cat. D2650) at 800-fold the tested concentration and stored at -70 degrees C prior to their use. All drugs and investigational agents were tested over a range starting from a high concentration at or near the clinical Cmax and decreasing in half-log increments. If the clinical Cmax for an agent had not been determined, the highest concentration tested was 10 microM.
Cell Culture. All cells were maintained in an incubator at 37 degrees C and 5% CO2 with 95% humidity. The PDC lines were cultured according to standard operating procedures established by the NCI PDMR. All PDCs were thawed and cultured in Matrigel-coated flasks prepared with a working solution of 1X Ham's F-12 nutrient mix, without supplementation (Invitrogen, Waltham, MA, cat. 11765054), 100 U/mL penicillin-streptomycin (Invitrogen, cat. 15140122), and 2.5% Matrigel (Corning Inc., Corning, NY, cat. 354248) for the first three passages. The 362531-283-R-J2-PDC and 782815-120-R-J1-PDC lines were cultured in 6C/Colon 1B media, which includes advanced DMEM/F-12 (Thermo Fisher Scientific, cat. 12634028), 10 mM HEPES (Thermo Fisher Scientific, cat. 15630080), 1X GlutaMAX supplement (Thermo Fisher Scientific, cat. 35050061), 0.1 mg/mL primocin (InvivoGen, San Diego, CA, cat. ant-pm-2), 10% defined fetal bovine serum, heat inactivated (HyClone Laboratories Inc., Logan, UT, cat. SH30070.03HI), 50% L-WRN conditioned media (ATCC, cat. CRL-3276), 1.25 mM N-Acetyl-L-cysteine (Sigma-Aldrich, cat. A9165), 10 mM nicotinamide (Sigma-Aldrich, cat. N0636), 1X B-27 supplement (Thermo Fisher Scientific, cat. 17504044), 1X N-2 supplement (Thermo Fisher Scientific, cat. 17502048), 50 ng/mL human EGF (Thermo Fisher Scientific, cat. PHG0311), and 10 microM Y-27632 dihydrochloride (Tocris Bioscience, cat. 1254). The K12877-001-R-J1-PDC line was cultured in 6I media, which includes all 6C/Colon 1B media plus 10 ng/mL human FGF-10 (PeproTech, cat. 100-26), 1 ng/mL human FGF-2 (PeproTech, cat. 100-18B), 1 µM prostaglandin E2 (Tocris Bioscience, cat. 2296), […] hydrocortisone (Sigma-Aldrich, cat. H4001), and […] bovine insulin (Sigma-Aldrich, cat. I6634). The K86415-001-R-J1-PDC line was cultured in 6D media, which includes all 6C/Colon 1B media components minus the L-WRN conditioned media. The 485176-168-R4-J1-PDC was cultured in PANC media, which includes all 6C/Colon 1B media plus 100 ng/mL human FGF-10 (PeproTech, cat. 100-26), 500 nM SB-431542 (Selleckchem, cat. S1067), and 10 nM gastrin (Tocris Bioscience, cat. 3006). […]
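Note: spheroids exposed to compounds for 7 days before reading.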
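Throughout, for viability, T/C: 100% = DMSO vehicle control viability.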

## CC1(C)CCC(Nc2ncc(C(F)(F)F)c(-c3c[nH]c4c(P(C)(C)=O)c(C#N)ccc34)n2)CN1 (configuration not stated) + C=CC(=O)N1CCN(c2nc(OCC3CCCN3C)nc3c(F)c(-c4nc(N)cc(C)c4C(F)(F)F)c(Cl)cc23)C(C)C1
Second compound 0.00316 µM
  pIC50: < 6.52
Second compound 0.01 µM
  pIC50: < 6.52
Second compound 0.0316 µM
  pIC50: < 6.52
Second compound 0.1 µM
  pIC50: < 6.52
Second compound 0.316 µM
  pIC50: < 6.52
Second compound 1 µM
  pIC50: 6.57
Second compound 0.00316 µM, first compound 0.000949 µM
  viability, T/C: 106%
Second compound 0.00316 µM, first compound 0.003 µM
  viability, T/C: 113%
Second compound 0.00316 µM, first compound 0.00949 µM
  viability, T/C: 88.4%
Second compound 0.00316 µM, first compound 0.03 µM
  viability, T/C: 63.7%
Second compound 0.00316 µM, first compound 0.0949 µM
  viability, T/C: 68.8%
Second compound 0.00316 µM, first compound 0.3 µM
  viability, T/C: 58.3%
Second compound 0.01 µM, first compound 0.000949 µM
  viability, T/C: 97.7%
Second compound 0.01 µM, first compound 0.003 µM
  viability, T/C: 101%
Second compound 0.01 µM, first compound 0.00949 µM
  viability, T/C: 88.7%
Second compound 0.01 µM, first compound 0.03 µM
  viability, T/C: 72.9%
Second compound 0.01 µM, first compound 0.0949 µM
  viability, T/C: 49.5%
Second compound 0.01 µM, first compound 0.3 µM
  viability, T/C: 59.6%
Second compound 0.0316 µM, first compound 0.000949 µM
  viability, T/C: 107%
Second compound 0.0316 µM, first compound 0.003 µM
  viability, T/C: 103%
Second compound 0.0316 µM, first compound 0.00949 µM
  viability, T/C: 90.8%
Second compound 0.0316 µM, first compound 0.03 µM
  viability, T/C: 77.2%
Second compound 0.0316 µM, first compound 0.0949 µM
  viability, T/C: 57.8%
Second compound 0.0316 µM, first compound 0.3 µM
  viability, T/C: 52.3%
Second compound 0.1 µM, first compound 0.000949 µM
  viability, T/C: 107%
Second compound 0.1 µM, first compound 0.003 µM
  viability, T/C: 104%
Second compound 0.1 µM, first compound 0.00949 µM
  viability, T/C: 88.7%
Second compound 0.1 µM, first compound 0.03 µM
  viability, T/C: 68.2%
Second compound 0.1 µM, first compound 0.0949 µM
  viability, T/C: 55.5%
Second compound 0.1 µM, first compound 0.3 µM
  viability, T/C: 56.8%
Second compound 0.316 µM, first compound 0.000949 µM
  viability, T/C: 103%
Second compound 0.316 µM, first compound 0.003 µM
  viability, T/C: 97.2%
Second compound 0.316 µM, first compound 0.00949 µM
  viability, T/C: 90.9%
Second compound 0.316 µM, first compound 0.03 µM
  viability, T/C: 67.2%
Second compound 0.316 µM, first compound 0.0949 µM
  viability, T/C: 77.3%
Second compound 0.316 µM, first compound 0.3 µM
  viability, T/C: 55.3%
Second compound 1 µM, first compound 0.000949 µM
  viability, T/C: 120%
Second compound 1 µM, first compound 0.003 µM
  viability, T/C: 97.1%
Second compound 1 µM, first compound 0.00949 µM
  viability, T/C: 85.8%
Second compound 1 µM, first compound 0.03 µM
  viability, T/C: 63.3%
Second compound 1 µM, first compound 0.0949 µM
  viability, T/C: 65.2%
Second compound 1 µM, first compound 0.3 µM
  viability, T/C: 53.3%

Source: PubChem BioAssay AID2060887 (Molecular Pharmacology Branch, DTP, NCI, 2025)
